Values quoted from earlier work as cited in article PMC10339703 (Clinical and Translational Science, 2023).

Columns and labels:
[1] = tested on: patients with IPF; conditions: commonly reported adverse effects; cited from earlier work
[2] = tested on: patients with IPF; conditions: most common side effects; cited from earlier work

Row | Compound | diarrhea, incidence [1] [%] | elevation in liver function tests, incidence [1] [%] | rash, incidence [2] [%]
1 | COC(=O)c1ccc2c(c1)NC(=O)/C2=C(\Nc1ccc(N(C)C(=O)CN2CCN(C)CC2)cc1)c1ccccc1 [Nintedanib] | 62 | 14 | –
2 | Cc1ccc(=O)n(-c2ccccc2)c1 [Pirfenidone] | – | – | 30
